These results are taken from patent US4910211A, “Novel benzothiazole and antirheumatic agent comprising it as an active ingredient” (Kanebo Ltd., priority 1987, dated 1990).

For one data set, the system named is rat adjuvant arthritis. The data set can be described thus: Effect on the Development of Adjuvant Arthritis. The following applies: oral; for inhibition in vivo at 100 mg/kg / inhibition in vivo at 50 mg/kg: Rattus norvegicus, 504 h, 21 days after adjuvant, mean ± standard error. Type of data set: in vivo, Fischer male rats. The procedure:
Fischer male rats (8 weeks old; body weight 120-180 g) were grouped so that the average of body weights among the groups were nearly the same. Then, 0.1 ml of complete adjuvant obtained by suspending Mycobacterium butyricum (Difco Laboratories) in paraffin oil in a concentration of 6 mg/ml was injected into the footpad of the right hind paw to induce adjuvant arthritis.
Each of the test compounds was dissolved or suspended in a 1% gum arabic solution, and administered orally once a day on six days a week over a period of three weeks starting from the day of the adjuvant injection. The group administered with a 1% gum arabic solution instead of the test compound was served for a control. The volumes of both hind paws were measured plethysmographically by displacement of water at various times after injection of the adjuvant, and the percent paw edema inhibition was calculated from the following equation. [formula] Eexp : the percent paw edema in rats treated with the test compound Econt : the mean of percent paw edema in rats of the control group
The percent paw edema was calculated from the following equation. [formula] Vpost : the paw volume after treatment with the adjuvant Vpre : the paw volume before treatment with the adjuvant

Data set [1] deals with Delayed-Type Hypersensitivity (DTH), normal immune reaction. The data set can be described thus: Effect on Delayed-Type Hypersensitivity (DTH): normal immune reaction. The class given is in vivo, BALB/c male mice. The following applies: for Footpad swelling inhibition / Footpad swelling: oral, normal immune reaction; for Footpad swelling: mean ± standard error. The procedure:
BALB/c male mice (8 weeks old) were sensitized by injection into the tail vein with 0.2 ml of 5×10^6 /ml sheep red blood cells (SRBC). Three days after the sensitization, 0.05 ml of 8×10^9 /ml SRBC was injected into the footpad of the right hind paw for elicitation of DTH. Footpad thickness was measured immediately before and 24 hours after the elicitation with a dial thickness gauge. The level of DTH was expressed as footpad swelling (mm) at 24 hour. The inhibition (%) of footpad swelling was calculated from the following equation.
The test compound was dissolved or suspended in a 1% gum arabic solution, and administered orally once a day over a period of 7 days starting from four days before the sensitization. To a control group, a 1% gum arabic solution was administered instead of the test compound. [formula] Texp : the mean of the footpad swelling in mice treated with the test compound
Tcont : the mean of the footpad swelling in mice of the control group

Data set [2] concerns Delayed-Type Hypersensitivity (DTH), enhanced immune reaction. The data set can be described thus: Effect on Delayed-Type Hypersensitivity (DTH): enhanced immune reaction. The class given is in vivo, BALB/c male mice. The following applies: for Footpad swelling inhibition / Footpad swelling: oral, cyclophosphamide 75 mg/kg; for Footpad swelling: mean ± standard error. The procedure:
Three days after the sensitization, 0.05 ml of 8×10^9 /ml SRBC was injected into the footpad of the right hind paw for elicitation of DTH. Twenty four hours later, footpad swelling (mm) was measured in the same way as in (A) above, and the inhibition (%) of footpad swelling was calculated from the following equation.
The test compound was dissolved or suspended in a 1% gum arabic solution, and administered orally once a day over a period of 7 days starting from four days before the sensitization (immediately after administration of cyclophosphamide). To a control group, a 1% gum arabic solution was administered instead of the test compound. The group, administered with physiological saline instead of cyclophosphamide and a 1% gum arabic solution instead of test compound respectively, was served for a normal group. [formula] Tcont : the mean of the footpad swelling in mice of the control group Texp : the mean of the footpad swelling in mice treated with the test compound
Tnor : the mean of the footpad swelling in mice of the normal group.

Another data set can be described thus: in vivo. The settings on record: mouse, oral, mice died within a week, probit method. The procedure:
ddY male mice (body weight about 23 g) were fasted overnight, and the test compound dissolved or suspended in a 1% gum arabic solution administered orally. From the number of mice died within a week, the LD50 value was calculated by the probit method.

Data set [3] has as its system rat mustard-induced paw edema. Nature of the data set: rat mustard-induced paw edema (subacute inflammation). The following applies: 100 mg/kg. The class given is in vivo.
In data set [4] the test system is rat carrageenin-induced paw edema. The data set can be described thus: rat carrageenin-induced paw edema (acute inflammation). The settings on record: 100 mg/kg. Type of data set: in vivo.
The mark [5] stands for this setting: 100 mg/kg, read-out: Paw edema inhibition, Non-treated paw.
Where [6] appears, read: 100 mg/kg, read-out: Paw edema inhibition, Treated paw.
[7] abbreviates: 3 mg/kg, ** P < 0.01 vs control.
Setting [8] is: 10 mg/kg, ** P < 0.01 vs control.
Setting [9] is: 30 mg/kg, * P < 0.05, ** P < 0.01 vs control.
Where [10] appears, read: 100 mg/kg, * P < 0.05 vs control.

“Also recorded” adds a separate entry of the source. Like-named read-outs stand apart in the source and are kept apart here. A value given as a limit tells only on which side of the number the result lay.

For the compound `CC(=O)Oc1ccc2sc(-c3ccc(C)cc3)nc2c1` [A, 5-acetoxy-2-(4-methylphenyl)benzothiazole], the inhibition in vivo at 100 mg/kg stood at 4.5 ± 11.7% in the data set on rat adjuvant arthritis (setting [5]) and 12.9 ± 4.4% with rat adjuvant arthritis (setting [6]).

Consider `CC(=O)Oc1ccc2nc(-c3ccc(C)cc3)sc2c1` [B, 6-acetoxy-2-(4-methylphenyl)benzothiazole], for which the inhibition in vivo at 100 mg/kg is 4.4 ± 14.2% with rat adjuvant arthritis (setting [5]) and -7.6 ± 8.8% in the data set on rat adjuvant arthritis (setting [6]).

`CC(=O)Oc1cccc2nc(-c3ccc(C)cc3)sc12` [C, 7-acetoxy-2-(4-methylphenyl)benzothiazole]: the results for the inhibition in vivo at 100 mg/kg in the data set with rat adjuvant arthritis (setting [5]) and with rat adjuvant arthritis (setting [6]) were 8.9 ± 10.4% and 16.6 ± 4.1%, respectively.

`CC(=O)Oc1cccc2sc(-c3ccc(C)cc3)nc12` [Example 5, 4-Acetoxy-2-(4-methylphenyl)benzothiazole]: the Footpad swelling inhibition in data set [1] (1 mg/kg) is 0.0%; in data set [1] (3 mg/kg) it was -6.8%; in data set [1] (10 mg/kg) it was 3.4%; in data set [1] (30 mg/kg) it was -8.5%; in data set [1] (100 mg/kg) it was 10.2%; in data set [2] (1 mg/kg), 57.1%. Moreover, the Footpad swelling inhibition is listed as 66.7% in data set [2] (3 mg/kg), 85.7% in data set [2] (10 mg/kg), 76.2% in data set [2] (30 mg/kg) and 57.1% in data set [2] (100 mg/kg). Further, the Footpad swelling in data set [1] (1 mg/kg) is on record as 59 ± 5 × 10^-2 mm; in data set [1] (3 mg/kg), 63 ± 6 × 10^-2 mm; in data set [1] (10 mg/kg), 57 ± 6 × 10^-2 mm; in data set [1] (30 mg/kg), 64 ± 6 × 10^-2 mm; in data set [1] (100 mg/kg), 53 ± 4 × 10^-2 mm; in data set [2] (1 mg/kg, * P < 0.05 vs control), 37 ± 5 × 10^-2 mm. For the same compound, the Footpad swelling in data set [2] (setting [7]) was 35 ± 1 × 10^-2 mm; in data set [2] (setting [8]), 31 ± 3 × 10^-2 mm; in data set [2] (setting [9]), 33 ± 2 × 10^-2 mm; in data set [2] (setting [10]), 37 ± 4 × 10^-2 mm. Moreover, the inhibition in vivo at 100 mg/kg turned out to be 32 ± 7.7% in the data set on rat adjuvant arthritis (setting [5]) and 31.8 ± 3.9% in the data set on rat adjuvant arthritis (setting [6]). The same compound registered an LD50 at 168 h in “in vivo” of more than 3000 mg/kg.

Regarding `COc1ccc(-c2nc3c(OC(C)=O)cccc3s2)cc1` [Example 6, 4-Acetoxy-2-(4-methoxyphenyl)benzothiazole], the inhibition in vivo at 100 mg/kg is 27.4 ± 10.8% in the data set with rat adjuvant arthritis (setting [5]) and 24.7 ± 3.7% in the data set with rat adjuvant arthritis (setting [6]). The same compound showed an LD50 at 168 h in “in vivo” of more than 3000 mg/kg.

As to `CC(=O)Oc1cccc2sc(-c3ccc(C(=O)O)cc3)nc12` [Example 7, 4-(4-Acetoxybenzothiazol-2-yl)benzoic acid], the inhibition in vivo at 100 mg/kg in the data set with rat adjuvant arthritis (setting [5]) was determined as 38.5 ± 6%; in the data set with rat adjuvant arthritis (setting [6]) it was 29.9 ± 2.9%. This compound came in with an LD50 at 168 h in the data set “in vivo” of 2020 mg/kg.

Turning to `COC(=O)c1ccc(-c2nc3c(OC(C)=O)cccc3s2)cc1` [Example 8, Methyl 4-(4-acetoxybenzothiazol-2-yl)benzoate], the figures for the inhibition in vivo at 100 mg/kg in the data set with rat adjuvant arthritis (setting [5]) and in the data set with rat adjuvant arthritis (setting [6]) were 28.6 ± 8.8% and 29.3 ± 3.6%, respectively. The compound also gave an LD50 at 168 h in the data set “in vivo” of more than 3000 mg/kg.

Consider `O=C([O-])c1ccccc1Nc1cc(Cl)ccc1C(=O)[O-].[Na+].[Na+]` [Lobenzarit disodium, N-(2-carboxyphenyl)-4-chloroanthranilic acid disodium salt], for which, in data set [3], the “effect on rat mustard-induced paw edema” value is “no effect”. Also, the Footpad swelling inhibition in data set [1] (1 mg/kg) is reported as 4.3%; in data set [1] (3 mg/kg), 8.6%; in data set [1] (10 mg/kg), -8.6%; in data set [1] (30 mg/kg) it was 7.1%; in data set [1] (100 mg/kg), 7.1%; in data set [2] (1 mg/kg) it was 20.0%. Also, the Footpad swelling inhibition in data set [2] (3 mg/kg) was 40.0%; in data set [2] (10 mg/kg), -10.0%; in data set [2] (30 mg/kg), 50.0%; in data set [2] (100 mg/kg), 50.0%. Also, the Footpad swelling in data set [1] (1 mg/kg) is recorded as 67 ± 2 × 10^-2 mm; in data set [1] (3 mg/kg), 64 ± 5 × 10^-2 mm; in data set [1] (10 mg/kg), 76 ± 6 × 10^-2 mm; in data set [1] (30 mg/kg), 65 ± 4 × 10^-2 mm; in data set [1] (100 mg/kg), 65 ± 5 × 10^-2 mm; in data set [2] (1 mg/kg, * P < 0.05 vs control), 47 ± 3 × 10^-2 mm. Further, the Footpad swelling is 43 ± 3 × 10^-2 mm in data set [2] (setting [7]), 53 ± 3 × 10^-2 mm in data set [2] (setting [8]), 41 ± 3 × 10^-2 mm in data set [2] (setting [9]) and 41 ± 3 × 10^-2 mm in data set [2] (setting [10]). Also, the “effect on DTH in a normal immune reaction (in words)” value in data set [1] (any doses, disodium salt) is given as “did not inhibit footpad swelling at any doses; also recorded: no effect on a normal immune reaction”. The “effect on DTH in an enhanced immune reaction (in words)” value in data set [2] (any doses) is given as “suppresses an abnormally enhanced immune reaction”. Also, the “effect on rat carrageenin-induced paw edema” value in data set [4] was “no effect”. Also, in the data set with rat adjuvant arthritis (100 mg/kg, adjuvant arthritis rats, footnote of Table 1), the “death during the test” value was “Four animals out of 16”. For the same compound, the inhibition in vivo at 50 mg/kg in the data set with rat adjuvant arthritis (read-out: Paw edema inhibition, Non-treated paw) is -9 ± 12%; with rat adjuvant arthritis (read-out: Paw edema inhibition, Treated paw) it was 6.3 ± 5.3%. In addition, the inhibition in vivo at 100 mg/kg in the data set on rat adjuvant arthritis (setting [5]) was -1.7 ± 11.4%; in the data set with rat adjuvant arthritis (setting [6]) it was 15.1 ± 6.6%.
